Entries after “also recorded” stand apart in the source; their conditions may differ.
Assays:
Format in all cases: cell-based, human
JEG-3 cells [1] = assay: Mitochondrial membrane potential, JC-10 assay (HTTS); conditions: for MMP ↓, lowest concentration at which the mean response value exceeded the mean control value ± 2*SD (rough binning): 24 h, decrease; for MMP relative to vehicle control (rough binning): after 24 h, in at least one concentration; for minimal effective concentration: read-out: MMP ↓, lowest concentration at which the mean response value exceeded the mean control value ± 2*SD (rough binning)
Source text: (§1) JEG-3 human choriocarcinoma trophoblastic cells (American Type Culture Collection, VA, United States) were maintained in sterile-filtered Minimum Essential Media (MEM) supplemented with L-glutamine and phenol red (Thermo Fisher Scientific, MA, United States), 10% (v/v) heat-inactivated BenchMark Fetal Bovine Serum (Gemini Bio, CA, United States), 1% (v/v) sodium pyruvate (Thermo Fisher Scientific, MA, United States), and 1% (v/v) penicillin streptomycin (Sigma Aldrich, MO, United States). Cells were maintained in an incubator at 37°C with 5% CO2. JEG-3 cells were cultured in 10 cm tissue culture plates and cell passage numbers were recorded.
(§2) A total of 42 perfluoroalkyl substances (PFAS) were evaluated (Supplementary Table S1 contains source and purity). PFAS stock solutions were maintained in 100% methanol as previous work has shown certain PFAS degrade when stored in dimethyl sulfoxide (DMSO; [Gaballah et al., 2020]). […] The vehicle control group consisted of 97.5% media + 2.5% methanol to match the concentration of methanol in the media at the highest PFAS concentration tested (500 µM). Menadione (50–500 µM) was used as a positive control for cytotoxicity assessment. PFAS were de-identified and assigned random numbers to eliminate bias. Chemical exposure plate maps were designed so that all experimental conditions were tested in at least technical duplicates per plate. The outer edges of each plate received media alone and were excluded from all analyses to avoid edge effects. Each plate map included 14 technical replicates of the vehicle control group and 14 technical replicates of media only. Biological replicates were defined as separate 384 well plates tested on separate days using different cell passages. The experimental workflow is depicted in Supplementary Figure S1.
(§3) JEG-3 cells were counted using a Z2 Coulter Particle Counter (Beckman Coulter, CA, United States) and seeded at a density of 2,500 cells per well in black-walled, clear bottom 384 well plates (Corning, #3764) and allowed to adhere overnight. Approximately 24 h later, 384 well plates were imaged using an IncuCyte Zoom live cell imager (Essen BioScience Inc., MI, United States) to obtain baseline cellular confluence measurements prior to chemical dosing (0 h). Media was removed from wells and replaced with fresh media containing chemical treatments (exposure media) using a Viaflo liquid handling device (Integra Biosciences, NH, United States). Within 30 min of exposure media application, plates were again imaged for cellular confluence using the IncuCyte Zoom. Plates were incubated with exposure media for 24 h and then imaged again using the IncuCyte Zoom (24 h).
The JC-10 assay (Enzo Life Sciences, NY, United States) was used to evaluate mitochondrial membrane potential, the main bioenergetic parameter that regulates respiratory rate, ATP synthesis and reactive oxygen species generation. In cells with polarized mitochondrial membranes, the JC-10 dye localizes to the mitochondrial matrix and forms red fluorescent aggregates (540/590 nm). In cells with depolarized mitochondrial membranes, the JC-10 dye localizes in the cytoplasm and converts to a green fluorescent monomer (490/525 nm). Mitochondrial membrane potential was calculated as the ratio of the green and red fluorescence intensities within a well.
At the end of the 24 h exposure period, exposure media was removed from the plate. The plate wells were then washed with 1x phosphate buffered saline (1x PBS). After washing, the JC-10 reagent was suspended in fresh 1x PBS and 20 µl was added to each well at a final concentration of 20 μM (Enzo Life Sciences, NY, United States). The plate was incubated for 1 h at 37°C, and the fluorescence intensities at excitation/emission wavelengths of 490/525 nm and 540/590 nm were measured using a CLARIOstar (BMG Labtech, Offenburg, Germany) plate reader, respectively.
HTTS data were analyzed using a custom data analysis script in R v 1.2.5019 ([R Core Team, 2019]). […]

JEG-3 cells [2] = assay: Proliferation, change in confluence 0-24 h (IncuCyte Zoom, HTTS); conditions: for minimal effective concentration: read-out: Prolif ↓, lowest concentration at which the mean response value exceeded the mean control value ± 2*SD (rough binning); for cellular proliferation relative to vehicle control (rough binning): after 24 h, in at least one concentration; for Prolif ↓, lowest concentration at which the mean response value exceeded the mean control value ± 2*SD (rough binning): decrease
Source text: as §1, §2, §3
Plate well bottom images were evaluated using automated cell masking. The automated cell masking program was developed using IncuCyte Zoom base software. Cell masking parameters were defined using a training set of JEG-3 cell images obtained prior to conducting the experiments and following IncuCyte Zoom software recommendations. Briefly, the training images were obtained from cell culture plates with varying levels of JEG-3 cellular confluence (ranging from ∼15% confluent to ∼95% confluent). Parameters for the automated cell masking were first manually set by an experimenter for 3-6 images of low (∼15–30%), medium (∼30–70%), and high confluence (∼70% or greater). The training images were then evaluated by the automated masking program and manually checked to ensure the parameters were sufficiently strict to ignore background (e.g., blank space on the plate well bottom) but adequately sensitive to detect cell borders. The masking program was then implemented on the experimental plates to obtain a baseline cellular confluence measurement at 0 h and a second confluence measurement at 24 h. […]

JEG-3 cells [3] = assay: CellTiter-Glo luminescent cell viability assay (HTTS); conditions: for Viability ↑, lowest concentration at which the mean response value exceeded the mean control value ± 2*SD (rough binning) / Viability ↓, lowest concentration at which the mean response value exceeded the mean control value ± 2*SD (rough binning): 24 h; for Viability ↑, lowest concentration at which the mean response value exceeded the mean control value ± 2*SD (rough binning): increase; for cell viability relative to vehicle control (rough binning): after 24 h, in at least one concentration; for Viability ↓, lowest concentration at which the mean response value exceeded the mean control value ± 2*SD (rough binning): decrease
Source text: as §1, §2, §3
In the same plate evaluated for mitochondrial membrane potential, cell viability measures were duplexed using the CellTiter-Glo (CTG) Luminescent Cell Viability Assay (Promega, WI, United States). CTG reagent was added to each well at a volume of 20 µl. The plate was left at room temperature to incubate for 5 min and then 20 µl from each well was transferred to a low-volume, round-bottom, white 384 well plate (Corning, NY, United States). The CTG reagent lyses cellular and mitochondrial membranes and binds to adenosine triphosphate (ATP) released by cells, which produces a luminescence signal. The intensity of the luminescence was considered a proxy measure for the number of live cells in a well. The luminescence intensities were measured using the CLARIOstar plate reader.
HTTS data were analyzed using a custom data analysis script in R v 1.2.5019 ([R Core Team, 2019]). Briefly, raw data points corresponding to the confluence measurements at 0 and 24 h, the fluorescence intensities corresponding to MMP, and the relative luminescence units (RLU) corresponding to cell viability were imported directly from Microsoft Excel into the R programming environment, RStudio. Separate plates run on separate days using different JEG-3 passages were considered as biologic replicates. […]

[4] = Homo sapiens, JEG-3, 24 h, read-out: MMP EC50 ± SD, JEG-3 cells, 24 h exposure, four-parameter fit, estimates meeting inclusion criteria
[5] = Homo sapiens, JEG-3, 24 h, read-out: Proliferation EC50 ± SD, JEG-3 cells, 24 h exposure, four-parameter fit, estimates meeting inclusion criteria
[6] = Homo sapiens, JEG-3, 24 h, read-out: Viability EC50 ± SD, JEG-3 cells, 24 h exposure, four-parameter fit, estimates meeting inclusion criteria
[7] = JEG-3 cells, 24 h exposure, four-parameter fit, estimates meeting inclusion criteria, read-out: Proliferation EC50 ± SD
[8] = JEG-3 cells, 24 h exposure, four-parameter fit, estimates meeting inclusion criteria, read-out: Viability EC50 ± SD
[9] = JEG-3 cells, raw model output including fits that did not meet inclusion criteria, read-out: MMP EC50 ± SD (raw values)
[10] = Homo sapiens, JEG-3, 24 h, read-out: MMP EC50 ± SE, JEG-3 cells, 24 h

Compound | EC50 (JEG-3 cells [1]; [4]) [µM] | EC50 (JEG-3 cells [2]; [5]) [µM] | EC50 (JEG-3 cells [3]; [6]) [µM] | MMP ↓, lowest concentration at which the mean response value exceeded the mean control value ± 2*SD (rough binning) (JEG-3 cells [1]; JEG-3 cells) [µM] | MMP relative to vehicle control (rough binning) (JEG-3 cells [1]) | EC50 (JEG-3 cells [2]; [7]) [µM] | Viability ↑, lowest concentration at which the mean response value exceeded the mean control value ± 2*SD (rough binning) (JEG-3 cells [3]; JEG-3 cells) [µM] | EC50 (JEG-3 cells [3]; [8]) [µM] | cell viability relative to vehicle control (rough binning) (JEG-3 cells [3]) | minimal effective concentration (JEG-3 cells [2]; Homo sapiens, JEG-3, 24 h) [µM] | cellular proliferation relative to vehicle control (rough binning) (JEG-3 cells [2]) | further results
O=C(O)C(F)(F)C(F)(F)OC(F)(F)F [Perfluoro-3-methoxypropanoic acid] | 93.1 ± 132 | 204 ± 111 | 304 ± 28.2 |  |  |  |  |  |  |  |  | 
O=S(=O)(O)C(F)(F)C(F)(F)C(F)(F)C(F)(F)F [Perfluorobutanesulfonic acid] |  |  |  | 50 | reduced MMP | 223 ± 76.7 | 50 | 330 ± 35 | increased cell viability |  |  | 
O=C(O)C(F)(F)C(F)(F)C(F)(F)F [Perfluorobutanoic acid] |  |  |  | 50 | reduced MMP | 209 ± 360 | 50 | 226 ± 116 | increased cell viability |  |  | EC50 (JEG-3 cells [1]; [9]): 52 µM
O=C(O)C(F)(F)C(F)(F)C(F)(F)C(F)(F)C(F)(F)C(F)(F)C(F)(F)C(F)(F)C(F)(F)F [Perfluorodecanoic acid] | 236 ± 160 | 234 ± 22.8 | 181 ± 25.6 |  | reduced MMP |  | 50 |  | reduced cell viability; also recorded: increased cell viability | 250 | reduced cellular proliferation | minimal effective concentration (JEG-3 cells [1]; Homo sapiens, JEG-3, 24 h): 50 µM; EC50 (JEG-3 cells [3]; Homo sapiens, JEG-3, 24 h, read-out: viability EC50 ± SE, JEG-3 cells, 24 h): 181 ± 26 µM; Viability ↓, lowest concentration at which the mean response value exceeded the mean control value ± 2*SD (rough binning) (JEG-3 cells [3]; JEG-3 cells): 200 µM
O=S(=O)(O)C(F)(F)C(F)(F)C(F)(F)C(F)(F)C(F)(F)C(F)(F)C(F)(F)F [Perfluoroheptanesulfonic acid] |  |  |  |  |  | 296 ± 201 |  |  |  |  |  | EC50 (JEG-3 cells [1]; [9]): 874 ± 1750 µM; Prolif ↓, lowest concentration at which the mean response value exceeded the mean control value ± 2*SD (rough binning) (JEG-3 cells [2]; JEG-3 cells, 24 h): 232.5 µM; Prolif ↑, lowest concentration at which the mean response value exceeded the mean control value ± 2*SD (rough binning) (JEG-3 cells [2]; JEG-3 cells, 24 h, increase): 23.25 µM; EC50 (JEG-3 cells [3]; JEG-3 cells, raw model output including fits that did not meet inclusion criteria, read-out: Viability EC50 ± SD (raw values)): 1980 ± 2480 µM
O=S(=O)(O)C(F)(F)C(F)(F)C(F)(F)C(F)(F)C(F)(F)C(F)(F)F [Perfluorohexanesulfonic acid] | 86.2 | 252 ± 21.7 | 289 ± 29.6 |  |  |  | 50 |  | increased cell viability | 350 | reduced cellular proliferation | EC50 (JEG-3 cells [1]; [10]): 86.2 ± 72.3 µM; EC50 (JEG-3 cells [1]; read-out: MMP EC50 ± SD, JEG-3 cells, 24 h exposure, four-parameter fit, estimates meeting inclusion criteria): 86.6 ± 71.5 µM
O=C(O)C(F)(F)C(F)(F)C(F)(F)C(F)(F)C(F)(F)F [Perfluorohexanoic acid] | 142 ± 12.6 |  |  |  | reduced MMP |  | 300 |  | increased cell viability | 100 | reduced cellular proliferation | EC50 (JEG-3 cells [1]; [10]): 141 ± 11.1 µM; minimal effective concentration (JEG-3 cells [1]; Homo sapiens, JEG-3, 24 h): 100 µM; EC50 (JEG-3 cells [2]; Homo sapiens, JEG-3, read-out: Proliferation EC50 ± SD (raw values), JEG-3 cells, raw model output including fits that did not meet inclusion criteria): 10418 ± 10 µM
O=C(O)C(F)(F)C(F)(F)C(F)(F)C(F)(F)C(F)(F)C(F)(F)C(F)(F)C(F)(F)C(F)(F)C(F)(F)F [Perfluoroundecanoic acid] |  |  |  | 100 | reduced MMP | 230 ± 13.3 |  | 266 ± 12.4 | reduced cell viability |  | reduced cellular proliferation | EC50 (JEG-3 cells [1]; JEG-3 cells, 24 h exposure, four-parameter fit, estimates meeting inclusion criteria, read-out: MMP EC50 ± SD): 200 ± 4 µM; Prolif ↓, lowest concentration at which the mean response value exceeded the mean control value ± 2*SD (rough binning) (JEG-3 cells [2]; JEG-3 cells, 24 h): 100 µM; Viability ↓, lowest concentration at which the mean response value exceeded the mean control value ± 2*SD (rough binning) (JEG-3 cells [3]; JEG-3 cells): 300 µM
